Laboratory results published in ChEMBL document CHEMBL1201862, “PubChem BioAssay data set” (2004).
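Interpolation was linear, between the two tested concentrations surrounding the appropriate level; five concentrations were tested over 48 hours in 96-well plates. GI50 = concentration required for 50% inhibition of growth.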 Activity calls are given as the source filed them. Cut-off read from the data, not from the text of the source: active = GI50 up to about 1.1 µM and inactive = higher.

How the values were obtained:
Assay in all cases: inhibition of tumour cell growth, NCI panel, 48 h
[1] = test system: SW-620
[2] = test system: A549
[3] = test system: HL-60
[4] = test system: KM12
[5] = test system: 786-0
[6] = test system: SF-268
[7] = test system: MDA-MB-231
[8] = test system: SK-MEL-5
[9] = test system: NCI-H460
[10] = test system: CCRF-CEM
[11] = test system: SR
[12] = test system: IGROV-1
[13] = test system: RPMI-8226
[14] = test system: MCF7
[15] = test system: SF-539
[16] = test system: T47D
[17] = test system: CAKI-1
[18] = test system: TK-10
[19] = test system: NCI-H226
[20] = test system: SNB-19

Measured: GI50

Cc1ncc([N+](=O)[O-])n1CCNS(=O)(=O)CCCn1ncnc1[N+](=O)[O-]
inactive: [1] > 100 µM | [2] > 100 µM | [3] > 100 µM | [4] > 100 µM | [5] > 100 µM | [6] > 100 µM | [7] > 100 µM | [8] > 100 µM | [9] > 100 µM | [10] > 100 µM | [11] > 100 µM | [12] > 100 µM | [13] > 100 µM | [14] > 100 µM | [15] > 100 µM | [16] > 100 µM | [17] > 100 µM | [18] > 100 µM | [19] > 100 µM

COC(=O)c1c(OC(C)=O)ccc2c1c1c(OC(C)=O)c3ccccc3c(OC(C)=O)c1n2Cc1cc(OC)cc(OC)c1
inactive: [2] 6 µM | [3] 7.78 µM | [4] 2.79 µM | [20] 9.2 µM | [5] 36.5 µM | [6] 5.09 µM | [7] 16.3 µM | [8] 4.06 µM | [9] 3.53 µM | [10] 6.76 µM | [11] 4.44 µM | [12] 9.1 µM | [13] 3.94 µM | [14] 26.1 µM | [15] 3.09 µM | [16] 3.82 µM | [17] 32.1 µM | [18] 66.7 µM | [19] 31.3 µM

CC(C)(C(=O)N(C(=O)N1CCN(c2ccccc2)CC1)S(=O)(=O)c1ccccc1)c1ccc(Cl)cc1
inactive: [1] 7.03 µM | [2] 33.7 µM | [3] 24.8 µM | [4] 19.3 µM | [20] 20.5 µM | [5] 55.2 µM | [6] 34.4 µM | [7] 31.7 µM | [8] 35.7 µM | [9] 28.8 µM | [10] 3.94 µM | [11] 22.8 µM | [13] 6.95 µM | [14] 4.33 µM | [15] 61.8 µM | [16] 29.2 µM | [17] 34.4 µM | [18] 61.4 µM | [19] 52.4 µM

Cc1nc2cc([N+](=O)[O-])ccc2c(NCCCN(C)C)c1C
inactive: [1] 5.3 µM | [2] 6.21 µM | [3] 28.8 µM | [4] 6.05 µM | [5] 10.4 µM | [6] 20.3 µM | [7] 3.34 µM | [8] 10.1 µM | [9] 3.18 µM | [10] 28.9 µM | [11] 4.45 µM | [12] 3.22 µM | [13] 12.9 µM | [14] 2.94 µM | [15] 13.7 µM | [16] 4.09 µM | [17] 20.3 µM | [18] 23.5 µM | [19] 5.08 µM
